Laboratory results from US20070054868A1, “Synergistic polyphenol compounds, compositions thereof, and uses thereof” (The Trustees of Columbia University in the City of New York, priority 2005, published 2007).

Columns and labels:
Format in all cases: cell-based, human
MMP-7 mRNA = assay: Semiquantitative RT-PCR analysis in SW837 cells; conditions: 20 μg/mL, at 12 hours, additional decrease at 24 to 48 hours
Protocol: (§1) RNA extraction and semiquantitative RT-PCR analysis were performed as described above in Example 7. Total RNA was isolated from SW837 human colon cancer cells using the Trizol reagent (Invitrogen) according to the manufacturer's instructions. cDNA was amplified from 1 μg of total RNA using Superscript one-step RT-PCR with the platinum Taq system (Invitrogen). Actin specific primer sets are described in Suzui, et al., Cancer Res., 62:3997-4006 (2002). […] Each amplification cycle consisted of 0.5 minutes at 94° C. for denaturation, 0.5 minutes at 55° C. for primer annealing, and 1 minute at 72° C. for extension. After PCR amplification, the fragments were analyzed by agarose gel electrophoresis and stained with ethidium bromide. The intensities of bands were quantified with NIH Image software version 1.62.

TGF-β2 mRNA = assay: Semiquantitative RT-PCR analysis in SW837 cells; conditions: 20 μg/mL, at 3 hours
Protocol: as §1

IGFBP-3 mRNA = assay: Semiquantitative RT-PCR analysis in SW837 cells; conditions: 20 μg/mL, at 3 to 12 hours, maximum at 6 hours
Protocol: as §1

IGF-1 mRNA = assay: Semiquantitative RT-PCR analysis in SW837 cells; conditions: 20 μg/mL, at 12 hours, additional decline at 24 and 48 hours
Protocol: as §1

MMP-9 mRNA = assay: Semiquantitative RT-PCR analysis in SW837 cells; conditions: 20 μg/mL, at 12 hours, additional decrease at 24 to 48 hours
Protocol: as §1

SW837 = assay: Growth inhibition IC50 against colorectal cell lines
Text: Cell lines and cell culture. The Caco2, HCT116, HT29, SW480, and SW837 human colorectal cancer cell lines and the FHC normal human fetal colon cell line were obtained from American Type Culture Collection (Manassas, Va.). All cell lines were maintained in DF10 medium containing DMEM (Invitrogen, San Diego, Calif.) supplemented with 10% fetal bovine serum (Invitrogen). The FHC cell line was originally established from the colon of a human fetus at 13 weeks of gestation and has an epithelial morphology. Cells were cultured in an incubator with humidified air at 37° C. with 5% CO2. As an untreated solvent control, cells were treated with DMSO (Sigma Chemical Co., St. Louis, Mo.) at a final concentration of <0.1%. […] Cells to be tested against were plated onto 96-well plates (3×10^3 cells/well) and twenty-four hours later, the cells were treated with an illustrative Synergistic Polyphenol Composition, or one or more illustrative Synergistic Polyphenol Compounds. Neither the medium nor the test compounds were changed during this time period. The assay was done in triplicate. […] The medium and test compounds were not changed during this time period. As a control, the cells were treated with 0.1% DMSO. […] The numbers of cells in replica plates were then determined using a Coulter Counter (Beckman Coulter Co., Fullerton, Calif.) as described in Shimizu et al., Clin. Cancer Res. 2004: 10:1130-40.

COX-2 mRNA = assay: Semiquantitative RT-PCR analysis in SW837 cells; conditions: 20 μg/mL
Protocol: RNA extraction and semiquantitative RT-PCR analysis were performed using the methods described in Suzui, et al., Cancer Res., 62:3997-4006 (2002). Total RNA was isolated from SW837 human colon cancer cells using Trizol reagent (Invitrogen) according to the manufacturer's instructions. cDNA was amplified from 1 μg of total RNA using SuperScript one-step RT-PCR with the platinum Taq system (Invitrogen). PCR was conducted for 25 cycles in a thermal controller (Programmable Thermal Controller; MJ Research Inc., Watertown, Mass.). The COX-2 specific primer sets […]-2 ([NT]) and […]-2 ([NT]) were designed using the sequence described in Hla et al., Proc. Natl. Acad. Sci. USA, 89:7384-7388 […]. Actin specific primer sets and the amplification cycle conditions were as described in Suzui, et al., Cancer Res., 62:3997-4006 (2002). The intensities of mRNA bands were quantified using NIH Image software version 1.62.

p-HER2 = assay: Western blot analysis in SW837 cells
Text: (§2) Total cellular protein was extracted and equivalent amounts of protein can be determined by western blot analysis using the methods described in Suzui, et al., Cancer Res., 62:3997-4006 (2002). The primary antibodies for several proteins are described in Masuda et al., Clin Cancer Res., 7:4220-4229 (2001); Masuda et al., Clin Cancer Res., 9:3486-3491 (2003); and Shimizu et al., Clin Cancer Res., 11:2735-2746 (2005). The primary antibodies for HER3 (2F12) and COX-2 (PG27) were purchased from Upstate Cell Signaling Solutions (Charlottesville, Va.) and Oxford Biochemical Research (Oxford, Mich.), respectively. To examine the levels of expression of the phosphorylated (i.e. activated) form of the HER3 protein (p-HER3), cellular lysates (1 mg/mL) were incubated with 4 μg anti-HER3 antibody overnight at 4° C. with slow agitation, and immune complexes were then precipitated by adding protein A/G agarose (sc-2003, Santa Cruz Biotechnology, Santa Cruz, Calif.). After incubating for 2 hours at 4° C., the beads were washed with lysis buffer, and bound proteins were eluted into the sample buffer and subjected to western blot analysis, as described above. The p-HER3 protein was then detected by using an anti-phospho-tyrosine antibody (PY-20-HRP, BD Transduction Laboratories, San Diego, Calif.). An antibody to actin was used as a loading control. Each membrane was developed using an ECL-enhanced chemiluminescence system (Amersham Biosciences, Piscataway, N.J.).

p-ERK = assay: Western blot analysis in SW837 cells; conditions: 20 μg/mL, at 12 hours
Text: as §2

p-Akt = assay: Western blot analysis in SW837 cells; conditions: 20 μg/mL, at 6 hours
Text: as §2

Bcl-xL = assay: Western blot analysis in SW837 cells; conditions: 1.0 μg/mL, 96 hours
Text: as §2

p-EGFR = assay: Western blot analysis in SW837 cells
Text: as §2

COX-2 protein = assay: Western blot analysis in SW837 cells; conditions: for cellular level of the COX-2 protein: 20 μg/mL
Text: as §2

Substance: (−)-epigallocatechin gallate
- cellular level of MMP-7 mRNA (MMP-7 mRNA): marked decrease
- level of TGF-β2 mRNA (TGF-β2 mRNA): transiently increased
- levels of IGFBP-3 mRNA (IGFBP-3 mRNA): increase
- level of IGF-1 mRNA (IGF-1 mRNA): decrease
- cellular level of MMP-9 mRNA (MMP-9 mRNA): marked decrease
- IC50 (SW837): 19.6 µg/mL
- IC50 concentration determined by MTT assays (SW837): 20 µg/mL
- cellular level of the COX-2 mRNA (COX-2 mRNA; at 48 hours): marked decrease
- cellular level of the COX-2 mRNA (COX-2 mRNA; beginning at about 6 hours): progressive decrease
- levels of the p-HER2 protein (p-HER2; 1.0 μg/mL, 96 hours): decrease
- levels of the p-HER2 protein (p-HER2; 20 μg/mL, within 6 hours): marked decrease
- levels of the p-ERK protein (p-ERK): marked decreases
- levels of the p-Akt protein (p-Akt): marked decreases
- levels of the Bcl-xL protein (Bcl-xL): decrease
- levels of the p-EGFR protein (p-EGFR; 1.0 μg/mL, 96 hours): decrease
- levels of the p-EGFR protein (p-EGFR; 20 μg/mL, within 6 hours): marked decrease
- levels of the COX-2 protein (COX-2 protein; 1.0 μg/mL, 96 hours): decrease
- cellular level of the COX-2 protein (COX-2 protein; after 12 to 24 hours): marked decrease
- cellular level of the COX-2 protein (COX-2 protein; at 48 hours): almost undetectable
